Paper PMC11238290, “Anti-Staphy Peptides Rationally Designed from Cry10Aa Bacterial Protein” (ACS Omega, 2024)
Where a SMILES comes first, the peptide text is derived from it.

Legend:
serum proteases = experiment: Peptide stability in human serum by RP-HPLC; type: in vitro ADME; conditions: human serum (male AB plasma, Sigma-Aldrich), serum:peptide 5:1 v/v, peptide 256 μM, 37 °C, RP-HPLC Venusil ASB C18, PDA 216 nm, mean ± SD of three replicates; for remaining at 2 h, 256 μM: read-out: relative peak area (%), peptide remaining in human serum, 2 h; for remaining at 4 h, 256 μM: read-out: relative peak area (%), peptide remaining in human serum, 4 h; for remaining at 6 h, 256 μM: read-out: relative peak area (%), peptide remaining in human serum, 6 h; for remaining at 12 h, 256 μM: read-out: relative peak area (%), peptide remaining in human serum, 12 h
Procedure: (§1) The stability of peptides AMPCry10Aa, AMPCry10Aa_1, and AMPCry10Aa_5, against serum proteases was evaluated as previously described.[86],[87] Aliquots of filtered human serum from male AB plasma from Sigma-Aldrich were mixed with each peptide to a final concentration of 256 μM in a 5:1 v/v ratio. Each aliquot was then incubated at 37 °C, and 200 μL was collected for analysis of peptide degradation at 0, 2, 4, 6, 12, and 24 h. The samples were analyzed by reversed-phase high-performance liquid chromatography (RP-HPLC) with a Shimadzu LC system (Kyoto, Japan) using LC Solution software. A gradient method and a Venusil ASB C18 column (250 mm × 4.6 mm, 5 μm, Bonna-Agela Technologies) with an injection volume of 15 μL were used. A segmented gradient was applied with a constant flow rate of 1.0 mL min^–1 and PDA detection at 216 nm using water and acetonitrile eluents as the mobile phase. The peptide amount was quantified by subtracting the relative area of each analyzed time peak from the initial control peak area. All assays were performed in triplicate.

[1] = Peptide stability in human serum by RP-HPLC; type: in vitro ADME; conditions: human serum (male AB plasma, Sigma-Aldrich), serum:peptide 5:1 v/v, peptide 256 μM, 37 °C, RP-HPLC Venusil ASB C18, PDA 216 nm; for relative peak area (%), peptide remaining in human serum, 6 h: 360 min; for peptide remaining in human serum, 24 h: triplicate
Procedure: as §1

[2] = Solubility observed in the aqueous EPR treatment solution; type: physicochemical; conditions: 100 μg of peptide in 50 μL of PBS (EPR treatment); observation
Excerpt: The EPR spectra (Figure 8A) indicate that the spin probe was structured in very rigid membranes, presenting 2A∥ values of ∼62 to ∼63 G, much higher than those found for the Leishmania parasite (∼54 G).[73]−[76] […] Pronounced increases in lipid fluidity generally create disorder in the lipid chains packaging, especially at lipid–protein interfaces, where they increase the likelihood of pore formation that could lead to electrolyte leakage and permeation of small molecules.[77]
Peptides' immediate effects on bacteria’s outermost membrane fluidity were analyzed by EPR spectroscopy. The bacteria in culture (1 × 10^9 CFU) were centrifuged and resuspended in 50 μL of PBS containing 100 μg of peptide. After 20 min of incubation, the sample was spin-labeled for the EPR experiment. To incorporate the spin label into the bacterial membranes, a 5 mg·mL^–1 ethanolic solution containing the spin label 5-doxyl stearic acid (5-DSA, Sigma-Aldrich, St. Louis, MO, USA) was added to each sample. Immediately after spin labeling, the sample was transferred to a 1 mm i.d. capillary tube, which was flame-sealed on one side. The capillary was centrifuged at 25,000 × g for 5 min, and the cell pellet of approximately 2 mm was placed in the center of the resonance cavity. […]

SMILES: CC[C@H](C)[C@H](N)C(=O)N[C@H](C(=O)N[C@@H](CC(N)=O)C(=O)N[C@H](C(=O)N[C@@H](CC(C)C)C(=O)N[C@H](C(=O)N[C@@H](CO)C(=O)N[C@H](C(=O)N[C@H](C(=O)N[C@H](C(=O)N1CCC[C@H]1C(=O)N[C@H](C(=O)N[C@@H](CCCCN)C(=O)N[C@@H](CC(N)=O)C(=O)N[C@@H](CCC(N)=O)C(=O)N[C@@H](CC(C)C)C(=O)N[C@@H](CC(=O)O)C(=O)N[C@@H](CCCCN)C(=O)N[C@@H](Cc1ccc(O)cc1)C(=O)N[C@@H](CCC(N)=O)C(N)=O)[C@@H](C)CC)[C@@H](C)O)C(C)C)[C@@H](C)CC)[C@@H](C)O)C(C)C)[C@@H](C)CC [AMPCry10Aa] (H-IINVLTSIVTPIKNQLDKYQ-NH2)
- remaining at 2 h, 256 μM (serum proteases): 39.6 ± 2.44%
- remaining at 4 h, 256 μM (serum proteases): 18.6 ± 2.76%
- remaining at 6 h, 256 μM (serum proteases): ~0%
- relative peak area (%), peptide remaining in human serum, 0 h ([1]; mean ± SD of three replicates): 92.2 ± 3.23%
- relative peak area (%), peptide remaining in human serum, 2 h ([1]; 2 h, mean ± SD of three replicates): about 40%
- relative peak area (%), peptide remaining in human serum, 12 h ([1]; mean ± SD of three replicates): no longer detectable
- solubility in the aqueous treatment solution [2]: did not dissolve

SMILES: CC[C@H](C)[C@H](NC(=O)[C@H](C)NC(=O)[C@@H](NC(=O)[C@@H](NC(=O)[C@@H](NC(=O)[C@@H](NC(=O)[C@@H](NC(=O)[C@H](CCCCN)NC(=O)[C@H](CC(C)C)NC(=O)[C@H](CC(N)=O)NC(=O)[C@H](CC(=O)O)NC(=O)[C@@H](N)CCCCN)[C@@H](C)O)[C@@H](C)CC)[C@@H](C)CC)C(C)C)[C@@H](C)O)C(=O)N[C@@H](CCCCN)C(=O)N[C@@H](CC(N)=O)C(=O)N[C@H](C(=O)N[C@@H](CC(C)C)C(=O)N[C@@H](CC(=O)O)C(=O)N[C@@H](CCCCN)C(=O)N[C@@H](Cc1ccc(O)cc1)C(=O)N[C@@H](CCC(N)=O)C(N)=O)[C@@H](C)CC [AMPCry10Aa_1] (H-KDNLKTIIVTAIKNILDKYQ-NH2)
- remaining at 2 h, 256 μM (serum proteases): 81.8 ± 1.54%
- remaining at 4 h, 256 μM (serum proteases): 74.7 ± 1.98%
- remaining at 6 h, 256 μM (serum proteases): 60%
- remaining at 12 h, 256 μM (serum proteases): 4.37 ± 1.32%
- relative peak area (%), peptide remaining in human serum, 0 h ([1]; mean ± SD of three replicates): 96.93 ± 0.51%
- relative peak area (%), peptide remaining in human serum, 6 h ([1]; mean ± SD of three replicates): 58.96 ± 2.33%
- relative peak area (%), peptide remaining in human serum, 12 h ([1]; mean ± SD of three replicates): trace
- peptide remaining in human serum, 24 h [1]: no longer detectable

SMILES: CC[C@H](C)[C@H](N)C(=O)N[C@H](C(=O)N[C@@H](CC(N)=O)C(=O)N[C@H](C(=O)N[C@@H](CCCCN)C(=O)N[C@H](C(=O)N[C@@H](CO)C(=O)N[C@@H](CC(C)C)C(=O)N[C@@H](CCCCN)C(=O)N[C@H](C(=O)N[C@H](C(=O)N[C@H](C(=O)N[C@@H](CCCCN)C(=O)N[C@@H](CC(N)=O)C(=O)N[C@@H](C)C(=O)N[C@@H](CC(C)C)C(=O)N[C@@H](CC(=O)O)C(=O)N[C@@H](CCCCN)C(=O)N[C@H](C(=O)N[C@@H](CCC(N)=O)C(N)=O)[C@@H](C)CC)[C@@H](C)CC)[C@@H](C)CC)[C@@H](C)O)[C@@H](C)O)C(C)C)[C@@H](C)CC [AMPCry10Aa_5] (H-IINVKTSLKTIIKNALDKIQ-NH2)
- remaining at 2 h, 256 μM (serum proteases): 81.6 ± 2.21%
- remaining at 4 h, 256 μM (serum proteases): 68.8 ± 0.99%
- remaining at 6 h, 256 μM (serum proteases): 40%
- remaining at 12 h, 256 μM (serum proteases): 8.11 ± 3.65%
- relative peak area (%), peptide remaining in human serum, 0 h ([1]; mean ± SD of three replicates): 92.83 ± 3.33%
- relative peak area (%), peptide remaining in human serum, 6 h ([1]; mean ± SD of three replicates): 36.73 ± 1.84%
- relative peak area (%), peptide remaining in human serum, 12 h ([1]; mean ± SD of three replicates): trace
- peptide remaining in human serum, 24 h [1]: no longer detectable
